# Patent US20220396569A1 (Carmot Therapeutics, Inc., priority 2021, published 2022)
# Target: T1, human GLP-1 receptor (Homo sapiens, UniProt P43220)
# T1 construct: expressed in transfected cells
# Experiment: GLP-1R cAMP Assay (HitHunter cAMP accumulation)
# Format: cell-based
# Conditions: cAMP accumulation, CHO cells stably overexpressing human GLP-1 receptor, 30 min treatment; read-out: EC50
# Method in brief: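 CHO cells stably expressing human GLP-1R, 10,000 cells/well in HBSS with 10 mM HEPES and 625 μM IBMX, were mixed with anti-cAMP antibody reagent. Compound was applied as a 20-point dose response in triplicate for 30 min. After lysis and overnight detection, luminescence was read and dose-response curves analysed.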
# T1 sequence (P43220 24-463): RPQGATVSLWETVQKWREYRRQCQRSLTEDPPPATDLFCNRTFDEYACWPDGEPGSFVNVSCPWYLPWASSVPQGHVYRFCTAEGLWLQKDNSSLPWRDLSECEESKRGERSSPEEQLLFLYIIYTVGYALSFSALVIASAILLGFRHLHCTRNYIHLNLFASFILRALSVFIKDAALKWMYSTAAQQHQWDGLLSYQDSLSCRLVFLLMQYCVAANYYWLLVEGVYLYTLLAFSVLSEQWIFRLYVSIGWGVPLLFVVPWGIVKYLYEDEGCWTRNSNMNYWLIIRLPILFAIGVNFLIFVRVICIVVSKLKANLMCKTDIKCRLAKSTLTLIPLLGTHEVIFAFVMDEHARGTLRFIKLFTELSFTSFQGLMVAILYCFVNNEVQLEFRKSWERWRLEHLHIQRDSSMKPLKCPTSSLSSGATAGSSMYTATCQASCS
row,EC50,Compound
1,< 0.05 µM,O=C(O)c1ccc2nc(CN3CC(Oc4ccnc(COc5ccc(F)cc5F)n4)C3)n(C[C@@H]3CCO3)c2c1 [Compound 550]
2,< 0.05 µM,N#Cc1ccc(OCc2nccc(O[C@H]3C[C@@H](Cc4nc5ccc(C(=O)O)cc5n4C[C@@H]4CCO4)C3)n2)c(F)c1 [Compound 551]
3,0.05 to 0.5 µM,"O=C(O)c1ccc2nc(CN3CCC(c4cccc(Oc5ccccc5)c4)C3)n(C[C@@H]3CCO3)c2c1 (stereo partly drawn) [Example 119, 1-(((S)-Oxetan-2-yl)methyl)-2-((3-(3-phenoxyphenyl)pyrrolidin-1-yl)methyl)-1H-benzo[d]imidazole-6-carboxylic acid]"
4,< 0.05 µM,"O=C(O)c1ccc2nc(CN3CCC(Cn4ccc(COc5ccc(Cl)cc5Cl)n4)CC3)n(C[C@@H]3CCO3)c2c1 [Example 127, (S)-2-((4-((3-((2,4-dichlorophenoxy)methyl)-1H-pyrazol-1-yl)methyl)piperidin-1-yl)methyl)-1-(oxetan-2-ylmethyl)-1H-benzo[d]imidazole-6-carboxylic acid]"
5,< 0.05 µM,"CCn1cncc1Cn1c(CN2CC(Cc3cnc(COc4ccc(Cl)cc4Cl)o3)C2)nc2ccc(C(=O)O)cc21 [Example 147, 2-((3-((2-((2,4-Dichlorophenoxy)methyl)oxazol-5-yl)methyl)azetidin-1-yl)methyl)-1-((1-ethyl-1H-imidazol-5-yl)methyl)-1H-benzo[d]imidazole-6-carboxylic acid]"
6,0.05 to 0.5 µM,"CC1(c2ccc(Cl)cn2)Oc2cccc(CC3CCN(Cc4nc5ccc(C(=O)O)cc5n4C[C@@H]4CCO4)CC3)c2O1 (stereo partly drawn) [Example 173, 2-((4-((2-(5-Chloropyridin-2-yl)-2-methylbenzo[d][1,3]dioxol-4-yl)methyl)piperidin-1-yl)methyl)-1-(((S)-oxetan-2-yl)methyl)-1H-benzo[d]imidazole-6-carboxylic acid]"
7,< 0.05 µM,"O=C(O)c1ccc2nc(CN3CC(Cc4ccnc(COc5ccc(Cl)cc5Cl)c4)C3)n(C[C@@H]3CCO3)c2c1 [Example 177, (S)-2-((3-((2-((2,4-Dichlorophenoxy)methyl)pyridin-4-yl)methyl)azetidin-1-yl)methyl)-1-(oxetan-2-ylmethyl)-1H-benzo[d]imidazole-6-carboxylic acid]"
8,< 0.05 µM,"O=C(O)c1ccc2nc(CN3CC(Oc4cccc(COc5ccc(Cl)cc5Cl)c4)C3)n(C[C@@H]3CCO3)c2c1 [Example 192, (S)-2-((3-(3-((2,4-Dichlorophenoxy)methyl)phenoxy)azetidin-1-yl)methyl)-1-(oxetan-2-ylmethyl)-1H-benzo[d]imidazole-6-carboxylic acid]"
9,< 0.05 µM,"N#Cc1cc(Cl)ccc1OCc1cc(OC2CN(Cc3nc4ccc(C(=O)O)cc4n3C[C@@H]3CCO3)C2)ccn1 [Example 193, (S)-2-((3-((2-((4-Chloro-2-cyanophenoxy)methyl)pyridin-4-yl)oxy)azetidin-1-yl)methyl)-1-(oxetan-2-ylmethyl)-1H-benzo[d]imidazole-6-carboxylic acid]"
10,< 0.05 µM,"CCn1cncc1Cn1c(CN2CC(Cc3cccc(COc4ccc(Cl)cc4Cl)c3)C2)nc2ccc(C(=O)O)cc21 [Example 197, 2-((3-(3-((2,4-Dichlorophenoxy)methyl)benzyl)azetidin-1-yl)methyl)-1-((1-ethyl-1H-imidazol-5-yl)methyl)-1H-benzo[d]imidazole-6-carboxylic acid]"
11,0.05 to 0.5 µM,"CC1(c2ccc(Cl)cc2F)Oc2cccc(CC3CCN(Cc4nc5ccc(C(=O)O)cc5n4C[C@@H]4CCO4)CC3)c2O1 (stereo partly drawn) [Example 201, 2-((4-((2-(4-Chloro-2-fluorophenyl)-2-methylbenzo[d][1,3]dioxol-4-yl)methyl)piperidin-1-yl)methyl)-1-(((S)-oxetan-2-yl)methyl)-1H-benzo[d]imidazole-6-carboxylic acid]"
12,< 0.05 µM,"O=C(O)c1ccc2nc(CN3CC(Oc4cnc(COc5ccc(Cl)cc5Cl)o4)C3)n(C[C@@H]3CCO3)c2c1 [Example 213, (S)-2-((3-((2-((2,4-Dichlorophenoxy)methyl)oxazol-5-yl)oxy)azetidin-1-yl)methyl)-1-(oxetan-2-ylmethyl)-1H-benzo[d]imidazole-6-carboxylic acid]"
13,< 0.05 µM,"O=C(O)c1ccc2nc(CN3CC(Oc4ccnc(COc5ccc(Cl)cc5Cl)c4)C3)n(Cc3cnco3)c2c1 [Example 219, 2-((3-((2-((2,4-Dichlorophenoxy)methyl)pyridin-4-yl)oxy)azetidin-1-yl)methyl)-1-(oxazol-5-ylmethyl)-1H-benzo[d]imidazole-6-carboxylic acid]"
14,< 0.05 µM,"CCn1cncc1Cn1c(CN2C[C@H](Oc3cccc(COc4ccc(Cl)cc4Cl)c3)[C@@H]2C)nc2ccc(C(=O)O)cc21 [Example 233, 2-(((2S,3S)-3-(3-((2,4-Dichlorophenoxy)methyl)phenoxy)-2-methylazetidin-1-yl)methyl)-1-((1-ethyl-1H-imidazol-5-yl)methyl)-1H-benzo[d]imidazole-6-carboxylic acid]"
15,< 0.05 µM,"CCn1cncc1Cn1c(CN2CC[C@H](Oc3ccnc(COc4ccc(Cl)cc4Cl)c3)C2)nc2ccc(C(=O)O)cc21 [Example 244, (S)-2-((3-((2-((2,4-Dichlorophenoxy)methyl)pyridin-4-yl)oxy)pyrrolidin-1-yl)methyl)-1-((1-ethyl-1H-imidazol-5-yl)methyl)-1H-benzo[d]imidazole-6-carboxylic acid]"
16,< 0.05 µM,"CCn1cncc1Cn1c(CN2CCC(Cn3ccc(COc4ccc(Cl)cc4Cl)n3)CC2)nc2ccc(C(=O)O)cc21 [Example 281, 2-((4-((3-((2,4-Dichlorophenoxy)methyl)-1H-pyrazol-1-yl)methyl)piperidin-1-yl)methyl)-1-((1-ethyl-1H-imidazol-5-yl)methyl)-1H-benzo[d]imidazole-6-carboxylic acid]"

# Further lines, the compound ahead of its results:
row,Compound,EC50
1,"N#Cc1ccc(OCc2nccc(Oc3ccc(Cc4nc5c(F)cc(C(=O)O)cc5n4C[C@@H]4CCO4)cc3F)n2)c(F)c1 [Compound 539, (S)-2-(4-((2-((4-cyano-2-fluorophenoxy)methyl)pyrimidin-4-yl)oxy)-3-fluorobenzyl)-4-fluoro-1-(oxetan-2-ylmethyl)-1H-benzo[d]imidazole-6-carboxylic acid]",< 0.05 µM
2,"Cc1cc(Oc2ccnc(COc3ccc(C#N)cc3F)n2)ccc1Cc1nc2c(F)cc(C(=O)O)cc2n1C[C@@H]1CCO1 [Compound 540, (S)-2-(4-((2-((4-Cyano-2-fluorophenoxy)methyl)pyrimidin-4-yl)oxy)-2-methylbenzyl)-4-fluoro-1-(oxetan-2-ylmethyl)-1H-benzo[d]imidazole-6-carboxylic acid]",< 0.05 µM
3,"Cc1cc(Oc2ccnc(COc3ccc(C#N)cc3F)n2)ccc1Cc1nc2ccc(C(=O)O)cc2n1C[C@@H]1CCO1 [Compound 541, 2-{[4-({2-[(4-cyano-2-fluorophenoxy)methyl]pyrimidin-4-yl}oxy)-2-methylphenyl]methyl}-1-{[(2S)-oxetan-2-yl]methyl}-1H-1,3-benzodiazole-6-carboxylic acid]",< 0.05 µM
4,"N#Cc1ccc(OCc2cc(Oc3cnc(Cc4nc5c(F)cc(C(=O)O)cc5n4C[C@@H]4CCO4)c(F)c3)ccn2)c(F)c1 [Compound 542, (S)-2-((5-((2-((4-Cyano-2-fluorophenoxy)methyl)pyridin-4-yl)oxy)-3-fluoropyridin-2-yl)methyl)-4-fluoro-1-(oxetan-2-ylmethyl)-1H-benzo[d]imidazole-6-carboxylic acid]",< 0.05 µM
5,"N#Cc1ccc(OCc2cc(Oc3ccc(Cc4nc5c(F)cc(C(=O)O)cc5n4C[C@@H]4CCO4)c(C#N)c3)ccn2)c(F)c1 [Compound 543, 2-{[2-cyano-4-({2-[(4-cyano-2-fluorophenoxy)methyl]pyridin-4-yl}oxy)phenyl]methyl}-4-fluoro-1-{[(2S)-oxetan-2-yl]methyl}-1H-1,3-benzodiazole-6-carboxylic acid]",< 0.05 µM
6,"Cc1ccc(OCc2cc(Oc3ccc(Cc4nc5ccc(C(=O)O)cc5n4C[C@@H]4CCO4)cn3)ccn2)c(F)c1 [Compound 544, (S)-2-((6-((2-((2-Fluoro-4-methylphenoxy)methyl)pyridin-4-yl)oxy)pyridin-3-yl)methyl)-1-(oxetan-2-ylmethyl)-1H-benzo[d]imidazole-6-carboxylic acid]",< 0.05 µM
7,"C[C@H]1[C@@H](Oc2ccnc(COc3ccc(C#N)cc3F)n2)CN1Cc1nc2ccc(C(=O)O)cc2n1C[C@@H]1CCO1 [Compound 545, 2-{[(2S,3S)-3-({2-[(4-cyano-2-fluorophenoxy)methyl]pyrimidin-4-yl}oxy)-2-methylazetidin-1-yl]methyl}-1-{[(2S)-oxetan-2-yl]methyl}-1H-1,3-benzodiazole-6-carboxylic acid]",< 0.05 µM
8,"C[C@H]1[C@@H](Oc2ccnc(COc3ccc(C#N)cc3F)n2)CN1Cc1nc2c(F)cc(C(=O)O)cc2n1C[C@@H]1CCO1 [Compound 546, 2-{[(2S,3S)-3-({2-[(4-cyano-2-fluorophenoxy)methyl]pyrimidin-4-yl}oxy)-2-methylazetidin-1-yl]methyl}-4-fluoro-1-{[(2S)-oxetan-2-yl]methyl}-1H-1,3-benzodiazole-6-carboxylic acid]",< 0.05 µM
9,"C[C@H]1[C@@H](Oc2ccnc(COc3ccc(Cl)cc3F)n2)CN1Cc1nc2ccc(C(=O)O)cc2n1C[C@@H]1CCO1 [Compound 547, 2-{[(2S,3S)-3-({2-[(4-chloro-2-fluorophenoxy)methyl]pyrimidin-4-yl}oxy)-2-methylazetidin-1-yl]methyl}-1-{[(2S)-oxetan-2-yl]methyl}-1H-1,3-benzodiazole-6-carboxylic acid]",< 0.05 µM
10,C[C@H]1[C@@H](Oc2ccnc(COc3ccc(F)cc3F)n2)CN1Cc1nc2ccc(C(=O)O)cc2n1C[C@@H]1CCO1 [Compound 548],< 0.05 µM
11,"C[C@H]1[C@@H](Oc2ccnc(COc3ccc(F)cc3C#N)n2)CN1Cc1nc2ccc(C(=O)O)cc2n1C[C@@H]1CCO1 [Compound 549, 2-{[(2S,3S)-3-({2-[(2-cyano-4-fluorophenoxy)methyl]pyrimidin-4-yl}oxy)-2-methylazetidin-1-yl]methyl}-1-{[(2S)-oxetan-2-yl]methyl}-1H-1,3-benzodiazole-6-carboxylic acid]",> 0.5 µM
